Experiments:
Test in all cases: radiometric filter-binding kinase assay
STK3 (human) = STK3 (human) (UniProt Q13188)
CHEK2 (human) = CHEK2 (human) (UniProt O96017)
IKBKE (human) = IKBKE (human) (UniProt Q14164)
PIM1 (human) = PIM1 (human) (UniProt P11309)
EPHB2 (human) = EPHB2 (human) (UniProt P29323); conditions: compound 0.1 µM
MAPKAPK2 (human) = MAPKAPK2 (human) (UniProt P49137)
NEK2 (human) = NEK2 (human) (UniProt P51955)
MAPK14 (human) = MAPK14 (human) (UniProt Q16539)
TBK1 (human) = TBK1 (human) (UniProt Q9UHD2)
MAPK9 (human) = MAPK9 (human) (UniProt P45984)
MAPK8 (human) = MAPK8 (human) (UniProt P45983)
Sequence of MAPK8 (human) (P45983 whole entry, looked up): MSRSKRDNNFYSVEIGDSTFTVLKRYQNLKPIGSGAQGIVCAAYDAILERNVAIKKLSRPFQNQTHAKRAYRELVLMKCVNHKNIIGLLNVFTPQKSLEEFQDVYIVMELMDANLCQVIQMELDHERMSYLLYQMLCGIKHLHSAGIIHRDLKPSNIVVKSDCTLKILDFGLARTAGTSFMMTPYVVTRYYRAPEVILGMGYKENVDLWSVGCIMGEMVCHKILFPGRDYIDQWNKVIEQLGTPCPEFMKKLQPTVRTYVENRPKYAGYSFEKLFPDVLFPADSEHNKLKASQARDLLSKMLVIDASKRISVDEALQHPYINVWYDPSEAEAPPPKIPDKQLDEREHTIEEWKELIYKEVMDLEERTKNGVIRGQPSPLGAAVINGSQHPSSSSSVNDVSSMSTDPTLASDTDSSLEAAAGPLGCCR

DYRK3 (human) = DYRK3 (human) (UniProt O43781)
MKNK2 (human) = MKNK2 (human) (UniProt Q9HBH9)
Sequence of MKNK2 (human) (Q9HBH9 whole entry, looked up): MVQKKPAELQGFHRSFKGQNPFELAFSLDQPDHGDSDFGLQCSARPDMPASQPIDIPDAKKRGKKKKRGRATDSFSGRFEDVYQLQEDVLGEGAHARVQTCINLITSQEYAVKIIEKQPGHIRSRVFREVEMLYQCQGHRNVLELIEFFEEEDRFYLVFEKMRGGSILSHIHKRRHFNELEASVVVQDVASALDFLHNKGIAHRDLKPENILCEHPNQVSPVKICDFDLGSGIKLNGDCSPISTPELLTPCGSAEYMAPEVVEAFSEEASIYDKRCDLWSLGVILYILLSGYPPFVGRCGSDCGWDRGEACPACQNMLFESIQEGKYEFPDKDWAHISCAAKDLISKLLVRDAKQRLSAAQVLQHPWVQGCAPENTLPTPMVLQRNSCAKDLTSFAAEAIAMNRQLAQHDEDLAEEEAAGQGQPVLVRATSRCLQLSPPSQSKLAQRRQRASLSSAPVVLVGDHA

PAK4 (human) = PAK4 (human) (UniProt O96013)
MAPK3 (human) = MAPK3 (human) (UniProt P27361)
CaMK1 (human) = CaMK1 (human) (UniProt Q14012)
Sequence of CaMK1 (human) (Q14012 whole entry, looked up): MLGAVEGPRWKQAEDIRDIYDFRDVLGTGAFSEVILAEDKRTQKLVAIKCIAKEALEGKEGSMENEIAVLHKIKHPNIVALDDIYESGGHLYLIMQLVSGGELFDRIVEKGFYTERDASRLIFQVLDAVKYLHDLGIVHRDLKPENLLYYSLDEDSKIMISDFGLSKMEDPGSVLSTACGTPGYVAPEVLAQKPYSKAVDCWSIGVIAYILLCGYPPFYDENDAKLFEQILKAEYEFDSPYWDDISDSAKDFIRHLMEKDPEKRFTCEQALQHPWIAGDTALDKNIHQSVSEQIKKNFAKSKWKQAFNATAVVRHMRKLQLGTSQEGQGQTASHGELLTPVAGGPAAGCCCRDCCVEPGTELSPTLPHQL

[1] = tested on: AKT1 (human), P31749 [S473D]
MARK2 (human) = MARK2 (human) (UniProt Q7KZI7)
RPS6KA1 KD1 KD2 (human) = RPS6KA1 KD1 KD2 (human) (UniProt Q15418)
[2] = tested on: RPS6KB1 (human), P23443 [T412E]
NUAK1 (human) = NUAK1 (human) (UniProt O60285)
DYRK1A (human) = DYRK1A (human) (UniProt Q13627)
MAP3K11 (human) = MAP3K11 (human) (UniProt Q16584)
TTK (human) = TTK (human) (UniProt P33981)
NEK6 (human) = NEK6 (human) (UniProt Q9HC98)
[3] = target: STK11 CAB39 STRADA (human) (UniProt Q9Y376+Q7RTN6+Q15831)
MARK3 (human) = MARK3 (human) (UniProt P27448)
Sequence of MARK3 (human) (P27448 whole entry, looked up): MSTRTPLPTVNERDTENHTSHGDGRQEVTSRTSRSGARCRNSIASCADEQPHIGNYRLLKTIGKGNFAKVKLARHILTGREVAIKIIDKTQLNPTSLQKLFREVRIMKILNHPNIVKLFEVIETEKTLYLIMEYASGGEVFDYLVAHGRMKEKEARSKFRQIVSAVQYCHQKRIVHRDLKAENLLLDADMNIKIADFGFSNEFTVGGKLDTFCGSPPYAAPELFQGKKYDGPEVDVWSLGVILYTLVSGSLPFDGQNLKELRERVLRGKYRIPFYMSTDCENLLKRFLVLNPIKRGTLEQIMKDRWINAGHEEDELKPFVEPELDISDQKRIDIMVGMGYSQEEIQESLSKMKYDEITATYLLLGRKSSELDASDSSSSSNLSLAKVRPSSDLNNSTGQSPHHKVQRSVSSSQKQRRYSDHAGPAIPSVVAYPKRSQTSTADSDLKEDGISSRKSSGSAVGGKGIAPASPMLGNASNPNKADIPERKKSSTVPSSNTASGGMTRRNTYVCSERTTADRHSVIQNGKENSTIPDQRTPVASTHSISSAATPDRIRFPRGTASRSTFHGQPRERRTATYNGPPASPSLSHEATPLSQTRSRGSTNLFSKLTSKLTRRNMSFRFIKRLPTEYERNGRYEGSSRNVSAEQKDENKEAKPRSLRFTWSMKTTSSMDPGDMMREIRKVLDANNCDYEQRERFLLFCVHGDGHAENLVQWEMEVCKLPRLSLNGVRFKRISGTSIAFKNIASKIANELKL

IKBKB (human) = IKBKB (human) (UniProt O14920)
MARK1 (human) = MARK1 (human) (UniProt Q9P0L2)
CSNK1D (human) = CSNK1D (human) (UniProt P48730)
JAK2 JH1 JH2 (human) = JAK2 JH1 JH2 (human) (UniProt O60674)
Sequence of JAK2 JH1 JH2 (human) (O60674 whole entry, looked up): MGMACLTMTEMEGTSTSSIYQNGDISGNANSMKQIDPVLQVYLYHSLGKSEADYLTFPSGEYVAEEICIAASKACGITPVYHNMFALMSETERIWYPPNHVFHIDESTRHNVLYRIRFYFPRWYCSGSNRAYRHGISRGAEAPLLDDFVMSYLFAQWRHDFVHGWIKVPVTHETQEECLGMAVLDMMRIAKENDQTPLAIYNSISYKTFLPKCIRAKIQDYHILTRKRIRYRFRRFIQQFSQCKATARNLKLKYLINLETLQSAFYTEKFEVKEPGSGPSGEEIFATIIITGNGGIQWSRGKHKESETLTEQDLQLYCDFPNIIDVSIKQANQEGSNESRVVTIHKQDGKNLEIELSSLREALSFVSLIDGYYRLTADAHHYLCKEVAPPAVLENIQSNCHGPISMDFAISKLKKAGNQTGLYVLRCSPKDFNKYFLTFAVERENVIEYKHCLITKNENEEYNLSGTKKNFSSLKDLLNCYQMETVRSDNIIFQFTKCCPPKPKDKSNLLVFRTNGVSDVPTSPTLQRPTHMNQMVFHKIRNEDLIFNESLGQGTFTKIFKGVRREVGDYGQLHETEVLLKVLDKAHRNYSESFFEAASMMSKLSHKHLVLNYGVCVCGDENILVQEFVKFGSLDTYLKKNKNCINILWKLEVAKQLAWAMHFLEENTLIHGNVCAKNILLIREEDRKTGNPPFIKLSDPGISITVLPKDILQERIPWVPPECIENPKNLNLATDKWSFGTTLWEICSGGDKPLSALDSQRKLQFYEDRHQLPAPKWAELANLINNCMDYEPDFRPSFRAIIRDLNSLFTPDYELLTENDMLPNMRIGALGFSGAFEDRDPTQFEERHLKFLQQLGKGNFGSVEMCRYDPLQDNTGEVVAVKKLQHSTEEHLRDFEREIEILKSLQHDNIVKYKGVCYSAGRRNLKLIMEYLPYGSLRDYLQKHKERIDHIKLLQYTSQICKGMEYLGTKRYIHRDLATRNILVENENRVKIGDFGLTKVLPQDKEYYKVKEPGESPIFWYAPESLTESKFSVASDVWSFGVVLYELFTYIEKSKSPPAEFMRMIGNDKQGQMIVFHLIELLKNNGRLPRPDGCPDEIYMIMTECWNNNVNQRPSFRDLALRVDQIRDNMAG

IRAK4 (human) = IRAK4 (human) (UniProt Q9NWZ3)
MKNK1 (human) = MKNK1 (human) (UniProt Q9BUB5)
NTRK1 (human) = NTRK1 (human) (UniProt P04629)
MAP2K1 (human) = MAP2K1 (human) (UniProt Q02750)

Sequence of IKBKE (human) (Q14164 whole entry, looked up): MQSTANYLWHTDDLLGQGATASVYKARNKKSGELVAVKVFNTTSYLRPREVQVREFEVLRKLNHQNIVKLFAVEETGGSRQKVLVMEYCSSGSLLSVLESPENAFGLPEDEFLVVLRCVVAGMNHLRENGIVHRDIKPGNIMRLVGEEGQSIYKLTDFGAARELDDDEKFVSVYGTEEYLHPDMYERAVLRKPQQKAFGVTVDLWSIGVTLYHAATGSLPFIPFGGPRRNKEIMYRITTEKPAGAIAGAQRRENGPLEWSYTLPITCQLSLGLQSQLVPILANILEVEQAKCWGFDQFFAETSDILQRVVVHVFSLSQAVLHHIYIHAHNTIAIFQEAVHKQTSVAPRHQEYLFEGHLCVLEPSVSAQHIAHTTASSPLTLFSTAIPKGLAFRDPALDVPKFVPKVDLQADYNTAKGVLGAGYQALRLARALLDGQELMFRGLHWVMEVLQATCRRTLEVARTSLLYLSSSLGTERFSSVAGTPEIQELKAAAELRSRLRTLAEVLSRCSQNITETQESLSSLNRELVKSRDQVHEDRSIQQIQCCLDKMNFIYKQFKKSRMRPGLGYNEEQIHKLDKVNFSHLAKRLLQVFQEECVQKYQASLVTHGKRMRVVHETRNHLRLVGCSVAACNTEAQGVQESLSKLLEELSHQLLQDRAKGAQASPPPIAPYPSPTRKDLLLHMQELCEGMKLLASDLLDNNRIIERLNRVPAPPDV
Sequence of MAPKAPK2 (human) (P49137 whole entry, looked up): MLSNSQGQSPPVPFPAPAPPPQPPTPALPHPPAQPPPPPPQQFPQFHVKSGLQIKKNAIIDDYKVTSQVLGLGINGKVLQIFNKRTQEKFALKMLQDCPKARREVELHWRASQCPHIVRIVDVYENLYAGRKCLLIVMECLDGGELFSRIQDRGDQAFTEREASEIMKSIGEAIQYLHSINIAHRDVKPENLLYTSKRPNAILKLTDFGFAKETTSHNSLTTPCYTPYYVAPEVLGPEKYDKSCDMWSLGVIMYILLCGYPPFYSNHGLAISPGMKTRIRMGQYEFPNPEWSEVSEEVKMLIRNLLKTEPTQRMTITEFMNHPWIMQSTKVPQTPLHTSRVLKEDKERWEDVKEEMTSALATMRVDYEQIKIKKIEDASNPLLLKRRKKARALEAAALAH
Sequence of PIM1 (human) (P11309 whole entry, looked up): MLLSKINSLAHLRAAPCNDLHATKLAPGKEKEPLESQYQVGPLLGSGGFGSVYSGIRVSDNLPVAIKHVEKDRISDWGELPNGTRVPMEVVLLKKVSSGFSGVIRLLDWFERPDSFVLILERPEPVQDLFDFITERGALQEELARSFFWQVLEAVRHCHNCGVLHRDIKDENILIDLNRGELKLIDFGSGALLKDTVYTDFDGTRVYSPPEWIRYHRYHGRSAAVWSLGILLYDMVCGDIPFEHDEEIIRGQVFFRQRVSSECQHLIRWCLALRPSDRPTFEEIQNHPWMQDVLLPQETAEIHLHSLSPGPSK
Sequence of MAPK14 (human) (Q16539 whole entry, looked up): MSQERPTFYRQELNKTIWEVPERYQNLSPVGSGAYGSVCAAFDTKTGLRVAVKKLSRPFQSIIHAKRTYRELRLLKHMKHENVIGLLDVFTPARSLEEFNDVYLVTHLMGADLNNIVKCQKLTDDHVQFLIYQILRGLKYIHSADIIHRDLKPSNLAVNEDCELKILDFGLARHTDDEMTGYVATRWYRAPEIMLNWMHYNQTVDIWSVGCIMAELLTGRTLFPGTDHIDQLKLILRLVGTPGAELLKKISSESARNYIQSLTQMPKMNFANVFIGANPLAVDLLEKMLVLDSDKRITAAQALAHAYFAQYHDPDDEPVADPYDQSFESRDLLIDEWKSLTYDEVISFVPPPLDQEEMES

residual activity (STK3 (human); compound 0.1 µM): 103%
residual activity (STK3 (human); compound 1.0 µM): 110%
residual activity (STK3 (human); compound 10.0 µM): 98%
residual activity (CHEK2 (human); compound 0.1 µM): 102%
residual activity (CHEK2 (human); compound 1.0 µM): 106%
residual activity (CHEK2 (human); compound 10.0 µM): 88%
residual activity (IKBKE (human); compound 0.1 µM): 98%
residual activity (IKBKE (human); compound 1.0 µM): 87%
residual activity (IKBKE (human); compound 10.0 µM): 48%
residual activity (PIM1 (human); compound 0.1 µM): 114%
residual activity (PIM1 (human); compound 1.0 µM): 98%
residual activity (PIM1 (human); compound 10.0 µM): 65%
residual activity (EPHB2 (human)): 105%
residual activity (MAPKAPK2 (human); compound 0.1 µM): 99%
residual activity (MAPKAPK2 (human); compound 1.0 µM): 72%
residual activity (MAPKAPK2 (human); compound 10.0 µM): 22%
residual activity (NEK2 (human); compound 0.1 µM): 111%
residual activity (NEK2 (human); compound 1.0 µM): 129%
residual activity (NEK2 (human); compound 10.0 µM): 113%
residual activity (MAPK14 (human); compound 0.1 µM): 104%
residual activity (MAPK14 (human); compound 1.0 µM): 116%
residual activity (MAPK14 (human); compound 10.0 µM): 103%
residual activity (TBK1 (human); compound 1.0 µM): 88%
residual activity (TBK1 (human); compound 10.0 µM): 30%
residual activity (MAPK9 (human); compound 0.1 µM): 91%
residual activity (MAPK9 (human); compound 10.0 µM): 35%
residual activity (MAPK8 (human); compound 0.1 µM): 109%
residual activity (MAPK8 (human); compound 1.0 µM): 100%
residual activity (MAPK8 (human); compound 10.0 µM): 38%
residual activity (DYRK3 (human); compound 0.1 µM): 39%
residual activity (DYRK3 (human); compound 1.0 µM): 14%
residual activity (DYRK3 (human); compound 10.0 µM): 7%
residual activity (MKNK2 (human); compound 0.1 µM): 76%
residual activity (MKNK2 (human); compound 1.0 µM): 31%
residual activity (MKNK2 (human); compound 10.0 µM): 6%
residual activity (PAK4 (human); compound 0.1 µM): 101%
residual activity (PAK4 (human); compound 1.0 µM): 93%
residual activity (PAK4 (human); compound 10.0 µM): 74%
residual activity (MAPK3 (human); compound 0.1 µM): 78%
residual activity (MAPK3 (human); compound 1.0 µM): 34%
residual activity (MAPK3 (human); compound 10.0 µM): 10%
residual activity (CaMK1 (human); compound 0.1 µM): 81%
residual activity (CaMK1 (human); compound 1.0 µM): 20%
residual activity (CaMK1 (human); compound 10.0 µM): 1%
residual activity ([1]; compound 0.1 µM): 109%
residual activity ([1]; compound 1.0 µM): 106%
residual activity ([1]; compound 10.0 µM): 94%
residual activity (MARK2 (human); compound 0.1 µM): 97%
residual activity (MARK2 (human); compound 1.0 µM): 63%
residual activity (MARK2 (human); compound 10.0 µM): 31%
residual activity (RPS6KA1 KD1 KD2 (human); compound 0.1 µM): 88%
residual activity (RPS6KA1 KD1 KD2 (human); compound 1.0 µM): 53%
residual activity (RPS6KA1 KD1 KD2 (human); compound 10.0 µM): 2%
residual activity ([2]; compound 0.1 µM): 92%
residual activity ([2]; compound 1.0 µM): 96%
residual activity ([2]; compound 10.0 µM): 94%
residual activity (NUAK1 (human); compound 1.0 µM): 17%
residual activity (NUAK1 (human); compound 10.0 µM): 32%
residual activity (DYRK1A (human); compound 0.1 µM): 97%
residual activity (DYRK1A (human); compound 1.0 µM): 63%
residual activity (DYRK1A (human); compound 10.0 µM): 21%
residual activity (MAP3K11 (human); compound 0.1 µM): 93%
residual activity (MAP3K11 (human); compound 1.0 µM): 86%
residual activity (MAP3K11 (human); compound 10.0 µM): 81%
residual activity (TTK (human); compound 0.1 µM): 111%
residual activity (TTK (human); compound 1.0 µM): 87%
residual activity (TTK (human); compound 10.0 µM): 79%
residual activity (NEK6 (human); compound 0.1 µM): 86%
residual activity (NEK6 (human); compound 1.0 µM): 87%
residual activity (NEK6 (human); compound 10.0 µM): 42%
residual activity ([3]; compound 0.1 µM): 77%
residual activity ([3]; compound 10.0 µM): 71%
residual activity (MARK3 (human); compound 0.1 µM): 92%
residual activity (MARK3 (human); compound 1.0 µM): 40%
residual activity (MARK3 (human); compound 10.0 µM): 15%
residual activity (IKBKB (human); compound 0.1 µM): 85%
residual activity (IKBKB (human); compound 1.0 µM): 50%
residual activity (IKBKB (human); compound 10.0 µM): 23%
residual activity (MARK1 (human); compound 0.1 µM): 51%
residual activity (MARK1 (human); compound 1.0 µM): 94%
residual activity (MARK1 (human); compound 10.0 µM): 76%
residual activity (CSNK1D (human); compound 0.1 µM): 75%
residual activity (CSNK1D (human); compound 1.0 µM): 42%
residual activity (CSNK1D (human); compound 10.0 µM): 18%
residual activity (JAK2 JH1 JH2 (human); compound 0.1 µM): 82%
residual activity (JAK2 JH1 JH2 (human); compound 1.0 µM): 87%
residual activity (JAK2 JH1 JH2 (human); compound 10.0 µM): 89%
residual activity (IRAK4 (human); compound 0.1 µM): 96%
residual activity (IRAK4 (human); compound 1.0 µM): 127%
residual activity (IRAK4 (human); compound 10.0 µM): 92%
residual activity (MKNK1 (human); compound 0.1 µM): 95%
residual activity (MKNK1 (human); compound 1.0 µM): 38%
residual activity (MKNK1 (human); compound 10.0 µM): 7%
residual activity (NTRK1 (human); compound 0.1 µM): 72%
residual activity (NTRK1 (human); compound 10.0 µM): 71%
residual activity (MAP2K1 (human); compound 0.1 µM): 86%
residual activity (MAP2K1 (human); compound 1.0 µM): 77%
residual activity (MAP2K1 (human); compound 10.0 µM): 49%
SMILES: NC(=O)c1cc(-c2ccnc(NC3CCCCC3)c2)nc(N2CCNCC2)c1
